Earlier results as cited in patent US20250262358A1, “SURGICAL SYSTEM AND METHODS OF USE” (MEDTRONIC, INC., priority 2021, published 2025).

Test system: myofibroblast formation
Details: animal studies of capsular contracture with breast implants; Ajmal et al. (2003)

O=S(=O)([O-])CCS.[Na+] [MESNA, sodium 2-mercaptoethane sulfonate]
myofibroblast formation: diminish myofibroblast formation
